Experiments:
[1] = test system: cell population A (Mixed Neurons from Healthy Donor) and cell population B (GABAergic Neurons from Healthy Donor), neural cells derived from iPS cells; test: Action potential measurement (MEA, MED64 system) of the cell circuit board with cell populations A and B connected via neurites, and after cutting the neurites, treated with drug (Example 2); assay type: cell-based
Experimental: Two types of frozen neural cell which are derived from iPS cells (GABAergic Neurons from Healthy Donor and Mixed Neurons from Healthy Donor) and are commercially available from Elixirgen Scientific were suspended in a medium and plated on a board including an electrode of a multi-electrode array (MEA; SCREEN Holdings Co., Ltd.) coated with 0.05% polyethyleneimine ([…]; manufactured by Sigma) and a 80 μg/mL laminin solution (manufactured by Sigma) in advance. Synchronous firing of the neural cells was checked to be induced by formation of a network after 3 weeks of the culture. A cell population containing more excitable cells and presenting synchronous firing in a short cycle was designated as a cell population A, and a cell population containing many suppressor cells and presenting synchronous firing in a long cycle was designated as a cell population B.
FIG. 4 is a diagram illustrating a test flow in Example 1. First, a board 5 to which partition members 8a and 8b, which are made of dimethylpolysiloxane (PDMS), and frame members 9a and 9b are respectively bonded was prepared so that a region including the cell population A (10) and a region including the cell population B (20) are separated. Next, on the board 5, two types of cell suspension each including the cell population A (10) and the cell population B (20) having different electrophysiological behaviors which were obtained in “1.” were plated in the respective regions surrounded by the frame members 9a and 9b while not mixing these cell populations. In a case where an area of the region was as large as more than 10 mm^2, respective cell suspensions were plated using a micropipette. In a case where an area was as small as 10 mm^2 or less, plating could not be performed manually, and therefore respective cell suspensions were plated using an ink jet bioprinter for cell discharge. […]
The cell population A and the cell population B were cultured for 4 weeks in a state in which they were connected via neurites (a state in which a neural network was formed), and action potentials detectable from the electrodes were measured for 5 minutes with an MED64 system (SCREEN Holdings Co., Ltd.). An electrical waveform was analyzed using software, BurstScope included in the MED64 system. […]
For respective cell populations in “2.” which were treated with the drug, action potentials detectable from the electrodes were measured for 5 minutes with the MED64 system. […]
The neurites between the cell population A and the cell population B were then cut as illustrated in FIG. 4. After cutting, the cells were cultured for 10 minutes in a CO2 incubator and stabilized, and then the action potential was measured again. […]

[2] = test system: cell population A (iCell GABANeurons) and cell population B (GABAergic Neurons from Healthy Donor), neural cells derived from iPS cells; test: Action potential measurement (MEA, MED64 system) of the cell circuit board including an inhibitory GABAergic cell population, connected via neurites, treated with drug (Example 4); assay type: cell-based; conditions: 30 μM final concentration, 10 minutes at 37° C.; populations connected via neurites; FIG. 18
Experimental: A cell circuit board in which the cell population A and the cell population B were disposed to be spaced apart from each other on the board was prepared using the same method as in Example 1 except that frozen neural cells which are derived from iPS cells (iCell GABANeurons) and are commercially available from Cellular Dynamics International were used as the cell population A, and the same cells as in Example 1 (GABAergic Neurons from Healthy Donor) were used as the cell population B.
Using the same method as in Example 1, at the fourth week of the culture, action potentials detectable from the electrodes were measured for 5 minutes in a state in which the cell population A and the cell population B were connected via neurites. A raster plot that visualizes synchronized firing patterns is illustrated in FIG. 17. In addition, FIG. 16 illustrates a raster plot for visualizing firing patterns of respective cell populations cultured by plating on a board alone.
The mixture was allowed to stand for 10 minutes in a CO2 incubator at 37° C.
For respective cell populations in the above section “3.” which were treated with the drug, action potentials detectable from the electrodes were measured for 5 minutes with the MED64 system. The results are illustrated in FIG. 18.

[3] = 10 μM final concentration, 10 minutes at 37° C., populations A and B connected via neurites, FIG. 8
[4] = 10 μM, neurites between A and B cut, 10 minutes stabilization, FIG. 9

Row | Molecule | firing pattern of the cell population A (short-cycle firing) [1, 3] | synchronization of the firing pattern of cell population A with cell population B [1, 3] | firing pattern of the cell population B after cutting the neurites [1, 4] | synchronous firing period of the cell population A after cutting the neurites [1, 4] | cycle of the synchronous firing pattern compared with before drug treatment [2] | synchronization between cell population A and cell population B [2]
1 | N[C@H](CCCP(=O)(O)O)C(=O)O [D-AP5, D-(−)-2-amino-5-phosphonopentanoic acid] | firing in a short cycle disappeared | became a firing pattern synchronized in the form of the same cycle and peak as those of the cell population B | does not change | greatly prolonged | – | –
2 | picrotoxin | – | – | – | – | significantly shorter cycle than that before the drug treatment | remained synchronized

From patent US11754548B2, “Method of in vitro cellular assay, cell circuit board, and method of manufacturing cell circuit board” (RICOH COMPANY, LTD., priority 2019, dated 2023)
